Laboratory results from the NIST ThermoML archive (doi:10.1021/je049848j).
Numbers after ± are expanded uncertainties.

Tests used:
[1] = Liquid; for mass density: 293 K, 101.33 kPa, Vibrating tube method; for Normal boiling temperature: Fischer boiling apparatus
[2] = refractive index (Na D-line) (dimensionless); conditions: 293 K; 101.33 kPa; Liquid; Standard Abbe refractometry

SMILES | mass density [1] [kg/m3] | Normal boiling temperature [1] [°C] | refractive index [2]
CC(=O)OC1CCCCC1 [cyclohexyl ethanoate] | 969.2 ± 0.9 | 172.60 ± 0.2 | 1.4398 ± 0.0011
Cc1ccccc1 [toluene] | 867.3 ± 0.5 | 110.30 ± 0.2 | 1.496 ± 0.0011
CC(=O)O [acetic acid] | 1049.5 ± 0.5 | 117.70 ± 0.2 | 1.372 ± 0.0011

Now from value to compound:

mass density [1] [kg/m3] | Normal boiling temperature [1] [°C] | refractive index [2] | SMILES
992.5 ± 0.5 | 140.90 ± 0.2 | 1.3811 ± 0.0011 | CCC(=O)O [propanoic acid]
814 ± 0.5 | 138.00 ± 0.2 | 1.4104 ± 0.0011 | CCCCCO [pentan-1-ol]
